For assay [1], the target named is T1, phosphorylated BTK Y223 in NIH/3T3 BTK WT cells (Homo sapiens, UniProt Q06187).
T1 construct: expressed in transfected cells; host or cells: NIH/3T3 (mouse fibroblasts) engineered to express BTK WT
Put plainly: Phosphor-BTK(Y223) assay, NIH/3T3 BTK WT cells. Format: cell-based. The settings on record: phosphorylated BTK Y223, NIH/3T3 BTK WT cells; read-out: NIH/3T3 BTK-WT pBTK IC50. Put shortly:
(§1)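 NIH/3T3 cells expressing BTK WT (7.5k/well) or C481S (10k/well) were treated with compound for 0.5 h at 37 °C, then 1 mM Na3VO4 was added for 2 h. Lysates were probed overnight at room temperature with HTRF p-BTK(Y223) cryptate/d2 antibodies (665/620 nm ratio). IC50 came from nonlinear fit of % inhibition against log concentration.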

Another assay addresses T2, BTK kinase (Homo sapiens, UniProt Q06187).
T2 construct: purchased Invitrogen PV3587
The experiment in a line: HTRF kinase activity inhibition assay, BTK. Format: biochemical. The settings on record: HTRF TK kit. The source says:
(§2) In this assay, the HTRF TK Kit (Catalog No. 62TKOPEC) provided by Cisbio was used to detect the inhibitory activity of compounds on BTK kinase and BTK C481S kinase and the selectivity of compounds relative to EGFR, ITK and TEC kinases.
(§3) Reagents and consumables: BTK kinase (Invitrogen, Catalog No. PV3587), BTK C481S (Carna, Product No. 08-547), ITK (Carna, Product No. 08-181), EGFR (Carna, Product No. 08-115), TEC (Carna, Product No. 08-182), HTRF-TK kit (Cisbio, Product No. 62TKOPEC), MgCl2 (Sigma, Product No. M1028), MnCl2 (Sigma, Product No. M1787), DTT (Sigma, Product No. D0632), ATP (Sigma, Product No. A7699-1 g), DMSO (Sigma, Product No. D2650), 384-well plate (PE, Product No. 6008280).
(§4) The entire operation steps were carried out on ice, and the total reaction volume was 10 μL. The compound (4 μL), substrate and ATP (4 μL), kinase (2 μL) were added in sequence to a 384-well plate, and shaked for 30 seconds. After an appropriate time at room temperature, the detection reagent was added. After 1 hour at room temperature, the plate was detected with a microplate reader. The specific steps were as follows: • a) 1× kinase buffer solution required for kinase detection was calculated according to the amount of the detection compound, and prepared as needed; • b) compounds with 2.5×working concentration were prepared, the 100 times gradient concentration solution of compounds was diluted by 4 μL to the desired concentration, mixed well, and added to each well at 4 μL per well; • c) 5×working concentration of substrate and ATP were prepared, mixed in a ratio of 1:1 before adding to a 384-well plate, and added to each well at 4 μL per well; • d) 5×working concentration of kinase was prepared, and 2 μL was added to each well; • e) the plate was shaked on a microplate oscillator for 30 seconds, sealed with a sealing membrane, and reacted at room temperature for an appropriate time; • f) 4×working concentrations of streptavidin XL-665 and TK antibody-cryptate compound were prepared, mixed in a ratio of 1:1 before adding to a 384-well plate, and added to each well at 10 μL per well; • g) the plate was read after reacting at room temperature for 1 hour; • h) the wells with only substrate, ATP and 1% DMSO added but no kinase were blank control wells, and the wells with only substrate, ATP, 1% DMSO and kinase were positive control wells.
(§5) Readings: The values of 620 nm (cryptate) and 665 nm (XL665) were read with a BioTek Synerg Neo2 microplate reader, the ratio of 665/620 per well was calculated, and the data were exported. Data analysis: IC50 was calculated using GraphPad Prism 7.0 software. The following nonlinear fitting formula was used to obtain the IC50 (half inhibitory concentration) of compounds:
(§6) [formula] • X: Compound concentration log value • Y: Inhibition rate (% inhibition)
(§7) The kinase inhibition rate (% inhibition rate) was calculated as: […]
For orientation: TR-FRET usually uses a lanthanide donor and a delayed reading to cut background.

For assay [2], the target named is T3, phosphorylated BTK Y223 in NIH/3T3 BTK C481S cells (Homo sapiens, UniProt Q06187, C481S).
T3 construct: expressed in transfected cells; host or cells: NIH/3T3 (mouse fibroblasts) engineered to express BTK C481S
T3 sequence (Q06187 whole entry C481S): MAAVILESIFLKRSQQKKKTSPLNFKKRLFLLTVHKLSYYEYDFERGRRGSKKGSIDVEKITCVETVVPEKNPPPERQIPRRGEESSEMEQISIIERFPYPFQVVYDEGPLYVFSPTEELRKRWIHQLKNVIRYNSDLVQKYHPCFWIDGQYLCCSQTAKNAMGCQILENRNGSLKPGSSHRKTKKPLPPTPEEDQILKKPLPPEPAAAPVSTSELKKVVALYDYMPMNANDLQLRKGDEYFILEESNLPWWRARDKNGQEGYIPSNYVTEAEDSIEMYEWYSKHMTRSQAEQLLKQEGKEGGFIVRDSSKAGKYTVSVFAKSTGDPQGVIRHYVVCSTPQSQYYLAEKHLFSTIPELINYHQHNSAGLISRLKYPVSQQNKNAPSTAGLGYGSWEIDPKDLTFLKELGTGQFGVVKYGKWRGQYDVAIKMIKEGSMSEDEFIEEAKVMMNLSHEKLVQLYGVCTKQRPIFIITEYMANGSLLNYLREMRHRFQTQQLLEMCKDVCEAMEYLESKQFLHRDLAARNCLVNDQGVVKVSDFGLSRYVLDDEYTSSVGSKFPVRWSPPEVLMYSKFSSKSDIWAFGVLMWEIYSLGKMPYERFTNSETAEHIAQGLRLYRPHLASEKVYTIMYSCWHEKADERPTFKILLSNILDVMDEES
The experiment in a line: Phosphor-BTK(Y223) assay, NIH/3T3 BTK C481S cells. In kind it is cell-based. The settings on record: phosphorylated BTK Y223, NIH/3T3 BTK C481S cells; read-out: NIH/3T3 BTK-C481S pBTK IC50. The procedure, abridged:
as §1

The target in a further assay is T4, BTK C481S kinase (Homo sapiens, UniProt Q06187, C481S).
T4 construct: purchased Carna 08-547
T4 sequence (Q06187 whole entry C481S): as above
Put plainly: HTRF kinase activity inhibition assay, BTK C481S. Format: biochemical. The settings on record: HTRF TK kit.
Text: as §2, §3, §4, §5, §6, §7

T2 sequence (Q06187 whole entry): as the sequence (Q06187 whole entry C481S) above, with S481C counted along it
T1 sequence (Q06187 whole entry): as the sequence (Q06187 whole entry C481S) above, with S481C counted along it

Regarding `COc1ccc(F)cc1C(=O)NCc1ccc(-c2nc(C3CCCC(O)C3)n3ccnc(N)c23)cc1` (stereo not shown) [Example 20, N-(4-(8-amino-3-(3-hydroxycyclohexanyl)imidazo[1,5-a]pyrazin-1-yl)benzyl)-5-fluoro-2-methoxybenzamide], the IC50 is not above 25 nM in assay [1], not above 10 nM at BTK kinase, not above 25 nM in assay [2] and 10 to 50 nM on BTK C481S kinase.

Values taken from patent publication US20250179027A1, “CYCLOALKYL OR HETEROCYCLYL SUBSTITUTED HETEROARYL COMPOUND, AND COMPOSITION AND USE THEREOF” (Shenzhen TargetRx, Inc., priority 2022, published 2025).
